The text below walks through data of PubChem BioAssay AID330 (DTP/NCI, 2004).

Toxic doses and inconclusive results are not listed.

The test system of this assay is P388 leukemia ip, CD2F1 mice, survival T/C. Briefly: NCI In Vivo Anticancer Drug Screen. Data for tumor model P388 Leukemia (intraperitoneal) in CD2F1 (CDF1) mice. The settings on record: endpoint: median survival time, higher = longer survival. The method, boiled down:
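Mice carrying the transplanted tumor received test compound or vehicle. Survival was recorded in each group, and the value is the treated-group measurement divided by that of the vehicle-treated control group.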

The mark [1] stands for this setting: dose: 50.0 mg/kg/injection, schedule: Q01DX009 (ip), vehicle: Klucel (hydroxypropylcellulose) (HPC).
[2] abbreviates: dose: 100.0 mg/kg/injection, schedule: Q01DX009 (ip), vehicle: Klucel (hydroxypropylcellulose) (HPC).
Where [3] appears, read: dose: 200.0 mg/kg/injection, schedule: Q01DX009 (ip), vehicle: Klucel (hydroxypropylcellulose) (HPC).
[4] abbreviates: dose: 100.0 mg/kg/injection, schedule: Q01DX001 (ip), vehicle: Klucel (hydroxypropylcellulose) (HPC).
The mark [5] stands for this setting: dose: 200.0 mg/kg/injection, schedule: Q01DX001 (ip), vehicle: Klucel (hydroxypropylcellulose) (HPC).
[6] abbreviates: dose: 400.0 mg/kg/injection, schedule: Q01DX001 (ip), vehicle: Klucel (hydroxypropylcellulose) (HPC).
[7] abbreviates: dose: 50.0 mg/kg/injection, schedule: Q01DX005 (ip), vehicle: saline with Tween-80.
Where [8] appears, read: dose: 100.0 mg/kg/injection, schedule: Q01DX005 (ip), vehicle: saline with Tween-80.
Where [9] appears, read: dose: 200.0 mg/kg/injection, schedule: Q01DX005 (ip), vehicle: saline with Tween-80.
Where [10] appears, read: dose: 25.0 mg/kg/injection, schedule: Q01DX009 (ip), vehicle: saline with Tween-80.
[11] abbreviates: dose: 50.0 mg/kg/injection, schedule: Q01DX009 (ip), vehicle: saline with Tween-80.
Setting [12] is: dose: 100.0 mg/kg/injection, schedule: Q01DX009 (ip), vehicle: saline with Tween-80.
[13] abbreviates: dose: 60.0 mg/kg/injection, schedule: Q01DX005 (ip), vehicle: Klucel (hydroxypropylcellulose) (HPC).
[14] abbreviates: dose: 120.0 mg/kg/injection, schedule: Q01DX005 (ip), vehicle: Klucel (hydroxypropylcellulose) (HPC).
Where [15] appears, read: dose: 240.0 mg/kg/injection, schedule: Q01DX005 (ip), vehicle: Klucel (hydroxypropylcellulose) (HPC).

As for `COC(=O)Cn1ccnc1[N+](=O)[O-]`, the T/C is 100 % of control (dose: 12.5 mg/kg/injection, schedule: Q01DX009 (ip), vehicle: distilled water + Tween-80); 93 % of control (dose: 25.0 mg/kg/injection, schedule: Q01DX009 (ip), vehicle: distilled water + Tween-80); 93 % of control (dose: 50.0 mg/kg/injection, schedule: Q01DX009 (ip), vehicle: distilled water + Tween-80); 93 % of control (dose: 100.0 mg/kg/injection, schedule: Q01DX009 (ip), vehicle: distilled water + Tween-80); 90 % of control (dose: 200.0 mg/kg/injection, schedule: Q01DX009 (ip), vehicle: distilled water + Tween-80).
For `O=c1c(N=Nc2ccccc2)c[nH]n1-c1ccccc1`, the T/C is, setting by setting: (dose: 62.5 mg/kg/injection, schedule: Q01DX009 (ip), vehicle: saline with Tween-80) 97 % of control; (dose: 125.0 mg/kg/injection, schedule: Q01DX009 (ip), vehicle: saline with Tween-80) 97 % of control; (dose: 250.0 mg/kg/injection, schedule: Q01DX009 (ip), vehicle: saline with Tween-80) 94 % of control.
In the case of `N#C/C(=C/c1ccco1)c1ccc(Cl)cc1`, the T/C under setting [1] is 90 % of control, the T/C under setting [2] is 95 % of control and the T/C under setting [3] was 92 % of control.
For `O=C(c1ccc(Cl)cc1)n1c(Cl)c(/C=N\Nc2cccc([N+](=O)[O-])c2)c2ccccc21`, the T/C is, setting by setting: (dose: 50.0 mg/kg/injection, schedule: Q01DX001 (ip), vehicle: Klucel (hydroxypropylcellulose) (HPC)) 86 % of control; under setting [4], 86 % of control; under setting [5], 87 % of control.
For the molecule `N#CC(N)C(F)c1ccccc1` (centres undefined), the T/C reads like this: under setting [4], 100 % of control; under setting [5], 101 % of control; under setting [6], 101 % of control.
Take `COc1ccc2c(c1)CC/C(=C\C1(Sc3ccccc3)CC1)C2O` (centres undefined): the T/C was 102 % of control under setting [7], 102 % of control under setting [8] and 98 % of control under setting [9].
As to `COC(=O)[C@@]12OC[C@]34[C@H]([C@@H](O)[C@@H]1O)[C@@]1(C)C=C(OC5OC(CO)C(O)C(O)C5O)C(=O)C(C)[C@@H]1C[C@H]3OC(=O)[C@H](OC(=O)C=C(C)C)[C@@H]24` (some centres undefined), the T/C was 107 % of control (dose: 0.25 mg/kg/injection, schedule: Q01DX009 (ip), vehicle: saline + alcohol); 112 % of control (dose: 0.5 mg/kg/injection, schedule: Q01DX009 (ip), vehicle: saline + alcohol); 112 % of control (dose: 1.0 mg/kg/injection, schedule: Q01DX009 (ip), vehicle: saline + alcohol); 106 % of control (dose: 2.0 mg/kg/injection, schedule: Q01DX009 (ip), vehicle: saline + alcohol); 112 % of control (dose: 4.0 mg/kg/injection, schedule: Q01DX009 (ip), vehicle: saline + alcohol); 111 % of control (dose: 8.0 mg/kg/injection, schedule: Q01DX009 (ip), vehicle: saline + alcohol).
`CC(O)CCCC(C)O` (centres undefined): the T/C reads like this: (dose: 50.0 mg/kg/injection, schedule: Q01DX009 (ip), vehicle: saline) 102 % of control; (dose: 100.0 mg/kg/injection, schedule: Q01DX009 (ip), vehicle: saline) 112 % of control; (dose: 200.0 mg/kg/injection, schedule: Q01DX009 (ip), vehicle: saline) 109 % of control.
Take `O=c1c2ccccc2nc(-c2ccccc2Cl)n1/N=C/c1cccc([N+](=O)[O-])c1`: the T/C is, setting by setting: (dose: 0.78 mg/kg/injection, schedule: Q01DX009 (ip), vehicle: saline with Tween-80) 99 % of control; (dose: 1.56 mg/kg/injection, schedule: Q01DX009 (ip), vehicle: saline with Tween-80) 92 % of control; (dose: 3.12 mg/kg/injection, schedule: Q01DX009 (ip), vehicle: saline with Tween-80) 91 % of control.
In the case of `Cc1ccc(C(C)(N=[N+]=[N-])c2ccccc2)cc1C` (centres undefined), the T/C runs as follows: under setting [10], 91 % of control; under setting [11], 108 % of control; under setting [12], 109 % of control.
Take `CSc1ncc(C#N)c2nc(-c3ccccc3)nn12`: the T/C under setting [7] was 97 % of control, the T/C under setting [8] is 94 % of control and the T/C under setting [9] is 88 % of control.
Regarding `CCOC(=N)c1ccc(C(=N)OCC)cc1`, the T/C was 97 % of control (dose: 60.0 mg/kg/injection, schedule: Q01DX005 (ip), vehicle: saline); 100 % of control (dose: 120.0 mg/kg/injection, schedule: Q01DX005 (ip), vehicle: saline); 104 % of control (dose: 240.0 mg/kg/injection, schedule: Q01DX005 (ip), vehicle: saline).
As for `Clc1ccc2nsnc2c1`, the T/C runs as follows: (dose: 6.25 mg/kg/injection, schedule: Q01DX009 (ip), vehicle: saline with Tween-80) 101 % of control; (dose: 12.5 mg/kg/injection, schedule: Q01DX009 (ip), vehicle: saline with Tween-80) 95 % of control; under setting [10], 95 % of control; under setting [1], 101 % of control; under setting [11], 104 % of control; under setting [2], 107 % of control. Further, the T/C is 104 % of control under setting [12]; 108 % of control under setting [3]; 95 % of control (dose: 200.0 mg/kg/injection, schedule: Q01DX009 (ip), vehicle: saline with Tween-80).
Consider `CCCCCC(=O)O[C@H]1CC[C@@H]2[C@H]1[C@@H]1CC[C@H]3O[C@]31C2(C)C`, for which the T/C was 111 % of control under setting [13], 111 % of control under setting [14] and 121 % of control under setting [15].
Turning to `COC(=O)[C@@H]1CCCN1C(=O)C(=O)N1CCC[C@H]1C(=O)OC`, the T/C runs as follows: (dose: 100.0 mg/kg/injection, schedule: Q01DX001 (ip), vehicle: saline with Tween-80) 108 % of control; (dose: 200.0 mg/kg/injection, schedule: Q01DX001 (ip), vehicle: saline with Tween-80) 103 % of control; (dose: 400.0 mg/kg/injection, schedule: Q01DX001 (ip), vehicle: saline with Tween-80) 103 % of control.
As for `N#CCCCCC/C=C/CCCCCCC1C=CCC1` (centres undefined), the T/C reads like this: (dose: 100.0 mg/kg/injection, schedule: Q01DX001 (ip), vehicle: saline) 100 % of control; (dose: 200.0 mg/kg/injection, schedule: Q01DX001 (ip), vehicle: saline) 100 % of control; (dose: 400.0 mg/kg/injection, schedule: Q01DX001 (ip), vehicle: saline) 96 % of control.
Regarding `N#CCC(C#N)N1CCOCC1` (centres undefined), the T/C is, setting by setting: under setting [10], 100 % of control; under setting [11], 100 % of control; under setting [12], 100 % of control.
For `CCN(CC)CCNc1c(C)cccc1Cl`, the T/C reads like this: (dose: 60.0 mg/kg/injection, schedule: Q01DX005 (ip), vehicle: saline with Tween-80) 100 % of control; (dose: 120.0 mg/kg/injection, schedule: Q01DX005 (ip), vehicle: saline with Tween-80) 100 % of control.
As for `CC1(C)C(=O)c2cc3ccccc3nc2-c2ccccc21`, the T/C is, setting by setting: under setting [7], 100 % of control; under setting [8], 99 % of control; under setting [9], 105 % of control.
In the case of `NC1=C(Br)C(=O)C(N)=C(Br)C1=O`, the T/C is, setting by setting: under setting [13], 100 % of control; under setting [14], 97 % of control; under setting [15], 105 % of control.
Consider `CSC(=S)n1nc(-c2ccccc2)c(N=Nc2ccc(Br)cc2)c1-c1ccccc1`, for which the T/C (dose: 100.0 mg/kg/injection, schedule: Q04DX002 (ip), vehicle: Klucel (hydroxypropylcellulose) (HPC)) is 100 % of control; the T/C (dose: 200.0 mg/kg/injection, schedule: Q04DX002 (ip), vehicle: Klucel (hydroxypropylcellulose) (HPC)) is 97 % of control; the T/C (dose: 400.0 mg/kg/injection, schedule: Q04DX002 (ip), vehicle: Klucel (hydroxypropylcellulose) (HPC)) was 101 % of control.
As for `C/C(=N/N=C(N)N)c1ccc(NC(=O)Nc2ccc(/C(C)=N/N=C(N)N)cc2)cc1`, the T/C is, setting by setting: (dose: 6.25 mg/kg/injection, schedule: Q01DX009 (ip), vehicle: water) 151 % of control; (dose: 100.0 mg/kg/injection, schedule: Q04DX003 (ip), vehicle: saline with Tween-80) 150 % of control; (dose: 150.0 mg/kg/injection, schedule: Q04DX003 (ip), vehicle: saline with Tween-80) 118 % of control.
As for `Nc1nnn(/N=C\C=N/n2nnc(N)n2)n1`, the T/C under setting [4] is 94 % of control, the T/C under setting [5] was 102 % of control and the T/C under setting [6] was 105 % of control.
